Measurements taken from patent US20240376126A1, “PRMT5 INHIBITOR AND THE USE THEREOF” (CYTOSINLAB THERAPEUTICS CO., LTD., priority 2022, published 2024).
Like-named read-outs stand apart in the source and are kept apart here.

Assays:
[1] = system: HCT116-MTAP-KO (MTAP null) cells; assay: Proliferation inhibition of HCT116 MTAP-KO cells in vitro (CellTiter Glo, 6 days); type: cell-based; conditions: read-out: Cell proliferation inhibition rate HCT116-MTAP null IC50 (nm)
Description: (§1) Biological Test Example 2 Proliferation Inhibition of HCT116 and HCT116 MTAP-KO Cells In Vitro
(§2) HCT116 cell line was purchased from the Chinese Academy of Sciences Cell Bank, and the MTAP gene was knocked out by CRISPR/Cas9 technology to obtain HCT116-MTAP-KO cell line.
(§3) McCoy's 5A medium (Gibco, catalog No. 16600082), fetal bovine serum (Gibco, catalog No. 10099141C), penicillin-streptomycin double antibody (Gibco, catalog No. 15140122), pancreatic enzyme (Gibco, catalog No. 25200056), CellTiter Glo assay kit (Promega, catalog No. G7572), 384-well transparent flat-bottomed black walled cell culture plate (Corning, catalog No. 3764), ultra micro sampler (Tecan, catalog No. D300e), Multimode reader (Biotek, catalog No. SynergyHTX)
(§4) • 1. Cell culture: HCT116 and HCT116-MTAP-KO cells were cultured in McCoy'5A medium+10% fetal bovine serum+1% penicillin-streptomycin double antibody; to ensure that they were always in the logarithmic growth phase and the cell viability greater than 95%. • 2. Compound concentration gradient preparation: The compound to be tested was added to a 384-well plate using an ultra micro sampler, starting from 30 μM (HCT116 cells) or 3 μM (HCT116-MTAP-KO cells), and diluted with DMSO at 3 times for a total of 9 concentrations and set up three duplicate wells. • 3. Treatment of cells with compounds: Trypsin-digested HCT116 or HCT116-MTAP-KO cell suspension was added to the 384-well plates spotted with the compounds to be tested at 40 μL per well, i.e., 100 cells per well, and the final concentration of DMSO was 0.4%. The cell culture plate was incubated at 37° C. in a 5% CO2 incubator for 6 days. • 4. Detection: 20 μL of CellTiter Glo reagent was added to each well of the cell culture plate and incubated at room temperature for 30 minutes. A multimode reader was used to detect the luminescence signal at […]. • 5. Data analysis:
(§5) The data was fitted with GraphPad Prism 8.0 software using a four parameter inhibitor-reaction model to obtain the […] (half inhibitory concentration) of the test compounds.
(§6) The first column represents cell proliferation inhibition rate HCT116 MTAP WT IC50 (nm), and the second column represents cell proliferation inhibition rate HCT116-MTAP null IC50 (nm): […]

HCT116 MTAP WT cells = assay: Proliferation inhibition of HCT116 cells in vitro (CellTiter Glo, 6 days); type: cell-based; conditions: Homo sapiens, HCT-116, 144 h, read-out: Cell proliferation inhibition rate HCT116 MTAP WT IC50 (nm)
Description: as §1, §2, §3, §4, §5, §6

Row | SMILES | IC50 ([1]; HCT116-MTAP null, 144 h) [nM] | IC50 (HCT116 MTAP WT cells) [nM] | IC50 [1] [nM]
1 | Cn1ncc2c(N)nc3cc(F)c(C(=O)N(Cc4cn5ccccc5n4)CC(C)(F)F)cc3c21 [Example 27] | < 100 | 1000 to 10000 | 
2 | CC(N(Cc1cn2ccccc2n1)C(=O)c1cc2c(cc1F)nc(N)c1cnn(C)c12)C(F)(F)F (centres unmarked) [Example 28] | < 100 | 1000 to 10000 | 
3 | CCN(Cc1cn2ccccc2n1)C(=O)c1ccc2nc(N)c3c(cnn3C)c2c1 [Example 29] | 100 to 1000 | 1000 to 10000 | 
4 | CCN(Cc1nc2ccccn2c1C)C(=O)c1cc2c(cc1F)nc(N)c1cnn(C)c12 [Example 30] | < 100 | 1000 to 10000 | 
5 | CC(c1cn2ccccc2n1)N(C(=O)c1cc2c(cc1F)nc(N)c1cnn(C)c12)C12CC(C1)C2 (centres unmarked) [Example 31] | < 100 | 1000 to 10000 | 
6 | Cc1cc2cc(C(=O)N(Cc3cn4ccccc4n3)C(C)c3cccc(F)n3)ccc2nc1N (centres unmarked) [Example 32] | < 100 | 1000 to 10000 | 
7 | CCN(C(=O)c1ccc2nc(N)c3c(c2c1)COC3C)C(C)c1cn2ccccc2n1 (centres unmarked) [Example 33] | 100 to 1000 | 1000 to 10000 | 
8 | CC(C)CN(Cc1cn2cc(C(F)(F)C(F)(F)F)ccc2n1)C(=O)c1cc2c(cc1F)nc(N)c1cnn(C)c12 [Example 34] | < 100 | < 100 | 
9 | COCCOc1ccc2nc(CN(CC(C)C)C(=O)c3cc4c(cc3F)nc(N)c3cnn(C)c34)cn2c1 [Example 35] | < 100 | 1000 to 10000 | 
10 | CC(C)CN(Cc1cn2cc(C(F)(F)F)ccc2n1)C(=O)c1cc2c(cc1F)nc(N)c1cnn(C)c12 [Example 36] | < 100 | 100 to 1000 | 
11 | [2H]C([2H])([2H])N(Cc1cn2ccccc2n1)C(=O)c1cc2c(cc1F)nc(N)c1cnn(C)c12 [Example 37] | < 100 | 1000 to 10000 | 
12 | Cc1cc2cc(C(=O)N(Cc3cn4ccccc4n3)C(C)c3ncccn3)c(F)cc2nc1N (centres unmarked) [Example 38] | < 100 | 1000 to 10000 | 
13 | Cc1cc2cc(C(=O)N(Cc3cn4cc(C(F)(F)F)ccc4n3)C(C)c3ncccn3)c(F)cc2nc1N (centres unmarked) [Example 39] | < 100 | 1000 to 10000 | 
14 | CCN(C(=O)c1cc2cc(C)c(N)nc2cc1F)C(C)c1cn2ccccc2n1 (centres unmarked) [Example 40] | < 100 | 1000 to 10000 | 
15 | COCCN(Cc1cn2cc(C(F)(F)F)ccc2n1)C(=O)c1ccc2nc(N)c3c(c2c1)COC3C (centres unmarked) [Example 41] | < 100 | 1000 to 10000 | 
16 | CC1OCc2c1c(N)nc1ccc(C(=O)N(Cc3cn4cc(C(F)(F)F)ccc4n3)c3cnn(C)c3)cc21 (centres unmarked) [Example 42, 4-Amino-3-methyl-N-(1-methyl-1H-pyrazol-4-yl)-N-((6-(trifluoromethyl)imidazolo[1,2-a]pyridin-2-yl)methyl)-1,3-dihydrofurano[3,4-c]quinolin-8-carboxamide] | < 100 | 1000 to 10000 | 
17 | CC1OCc2c1c(N)nc1ccc(C(=O)N(Cc3cn4cc(C(F)(F)F)ccc4n3)C34CC(C3)C4)cc21 (centres unmarked) [Example 43] | < 100 | 1000 to 10000 | 
18 | COCC(C)N(Cc1cn2cc(C(F)(F)F)ccc2n1)C(=O)c1ccc2nc(N)c3c(c2c1)COC3C (centres unmarked) [Example 44] | < 100 | 1000 to 10000 | 
19 | COC1CC(N(Cc2cn3ccccc3n2)C(=O)c2cc3c(cc2F)nc(N)c2cnn(C)c23)C1 (centres unmarked) [Example 45] | < 100 | 1000 to 10000 | 

Row | SMILES | IC50 ([1]; HCT116-MTAP null, 144 h) [nM] | IC50 (HCT116 MTAP WT cells) [nM] | IC50 [1] [nM]
20 | CCN(Cc1cn2ccccc2n1)C(=O)c1ccc2nc(N)c3c(c2c1)CO[C@H]3C [Example 47] | < 100 | 1000 to 10000 | 
21 | C[C@H]1OCc2c1c(N)nc1ccc(C(=O)N(Cc3cn4cc(C(F)(F)F)ccc4n3)c3cnn(C)c3)cc21 [Example 48] | 1000 to 10000 | 1000 to 10000 | 
22 | C[C@@H]1OCc2c1c(N)nc1ccc(C(=O)N(Cc3cn4cc(C(F)(F)F)ccc4n3)c3cnn(C)c3)cc21 [Example 49] | < 100 | 1000 to 10000 | 
23 | [2H]C([2H])([2H])N(Cc1cn2cc(C(F)(F)F)ccc2n1)C(=O)c1ccc2nc(N)c3c(c2c1)COC3C (centres unmarked) [Example 50] | 100 to 1000 | 1000 to 10000 | < 100
24 | CCN(Cc1cn2cc(C(F)(F)F)ccc2n1)C(=O)c1ccc2nc(N)c3c(c2c1)COC3C (centres unmarked) [Example 51] | 100 to 1000 | 1000 to 10000 | 
25 | CC(C)CN(Cc1cn2cc(C(F)(F)F)ccc2n1)C(=O)c1ccc2nc(N)c3c(c2c1)COC3C (centres unmarked) [Example 52] | < 100 | 1000 to 10000 | 
26 | CC(C)CN(Cc1cn2ccccc2n1)C(=O)c1ccc2nc(N)c3c(c2c1)COC3C (centres unmarked) [Example 53] | < 100 | 1000 to 10000 | 
27 | CC(C)CN(Cc1cn2ccccc2n1)C(=O)c1ccc2nc(N)c3c(c2c1)CO[C@@H]3C [Example 54] | 100 to 1000 | 1000 to 10000 | 
28 | CC(C)CN(Cc1cn2ccccc2n1)C(=O)c1ccc2nc(N)c3c(c2c1)CO[C@H]3C [Example 55] | < 100 | 1000 to 10000 | 
29 | CC1OCc2c1c(N)nc1ccc(C(=O)N(Cc3cn4ccccc4n3)C34CC(C3)C4)cc21 (centres unmarked) [Example 56] | 100 to 1000 | 1000 to 10000 | 
30 | CC1OCc2c1c(N)nc1ccc(C(=O)N(Cc3cn4ccccc4n3)c3cnn(C)c3)cc21 (centres unmarked) [Example 57] | 100 to 1000 | 1000 to 10000 | 
31 | CC(C)CN(Cc1nc2ccccn2c1F)C(=O)c1cc2c(cc1F)nc(N)c1cnn(C)c12 [Example 58] | < 100 | 100 to 1000 | 
32 | Cn1ncc2c(N)nc3cc(F)c(C(=O)N(Cc4cn5ccccc5n4)C45CC(F)(C4)C5)cc3c21 [Example 59] | < 100 | 1000 to 10000 | 
33 | COCCN(C(=O)c1cc2c(cc1F)nc(N)c1cnn(C)c12)C(C)c1cn2ccccc2n1 (centres unmarked) [Example 60] | < 100 | 1000 to 10000 | 
34 | Cn1ncc2c(N)nc3cc(F)c(C(=O)N(Cc4cn5ccccc5n4)C45CC(C#N)(C4)C5)cc3c21 [Example 61] | < 100 | 1000 to 10000 | 
35 | Cn1ncc2c(N)nc3cc(F)c(C(=O)N(Cc4cn5ccccc5n4)C45CC(C(F)(F)F)(C4)C5)cc3c21 [Example 62] | < 100 | 1000 to 10000 | 
36 | C[C@@H]1COC[C@H](c2cn3ccccc3n2)N1C(=O)c1ccc2nc(N)c3cnn(C)c3c2c1 [Example 63] | < 100 | 1000 to 10000 | 
37 | CC1OCc2c1c(N)nc1ccc(C(=O)N3[C@H](C)COC[C@@H]3c3cn4ccccc4n3)cc21 (some centres unmarked) [Example 64] | 100 to 1000 | 1000 to 10000 | 
38 | CC1OCc2c1c(N)nc1ccc(C(=O)N(Cc3cn4ccccc4n3)C(C)C(F)(F)F)cc21 (centres unmarked) [Example 65] | 100 to 1000 | 1000 to 10000 | 
